Assay results from patent US8399214B2 (Evonik Degussa GmbH, priority 2005, dated 2013).
Values joined by “and” are separate entries in the source; they are usually repeats but may differ in a detail not shown here. Identical values can stand only once. Like-named read-outs stand apart in the source and are kept apart here.

How the values were obtained:
[1] = tested on: C. glutamicum OM246C (ΔmetH, ΔmetE); assay type: cell-based; settings: 24 hours at 30° C.
From the text: (§1) Other possible delivery systems include synthetic oils, organic solvents, chloro-carbons, fluoro-carbons, or chloro-fluoro-carbons.

[2] = tested on: C. glutamicum OM174 (ΔmetF, ΔmetB, ΔmetY); settings: DMDS 0.2%, XAD4, 60 hours at 30° C.
Procedure: (§7) A test tube experiment was performed with M2014 derivatives that contain different combinations of deletions of metY, metB, and metF. […] The inoculum was approximately 5×10^3 cells per tube. Cells were grown at 30° C. in a platform shaker for 60 hours, and cell densities were measured at OD600.

[3] = tested on: C. glutamicum OM101C (ΔmetF, ΔmetB); assay type: cell-based; settings: XAD4, 24 hours at 30° C.
Procedure: (§2) To each test tube 100 μl of a sterile suspension of XAD4 in water (50% v/v) was added.

[4] = tested on: C. glutamicum OM246C (ΔmetE, ΔmetH); assay type: cell-based; settings: XAD4, 24 hours at 30° C.
Procedure: as §2

[5] = tested on: C. glutamicum OM246C (ΔmetH, ΔmetE); settings: for Optical densities at 600 nm: OM246C, 24 hours at 30° C.
From the text: as §1

C. glutamicum M2014 [6] = experiment: Test tube growth in methionine-free medium with mineral oil as DMDS delivery system; settings: for Optical densities at 600 nm: 24 hours at 30° C.
From the text: as §1

[7] = tested on: C. glutamicum OM63 (ΔmetF)
Procedure: (§3) To this end, test tube experiments using 5 ml of medium were performed on OM63 and M2014.
as §2

[8] = tested on: C. glutamicum OM158 (ΔmetF, ΔmetY); settings: DMDS 0.2%, XAD4, 60 hours at 30° C.
Procedure: as §7

[9] = tested on: C. glutamicum M2014 (parent); experiment: Test tube growth in methionine-free medium, DMDS added directly; settings: for Optical densities at 600 nm: M2014, 36 hours at 30° C.
From the text: (§4) M2014 was transformed with plasmid pOM86 (FIG. 9) (SEQ ID NO:8) to yield a “Campbell in” strain. The “Campbell in” strain was then “Cambelled out” to yield a “Campbell out” strain named OM63.

C. glutamicum OM246C = experiment: Shake flask study in molasses medium with XAD4, amino acid production with DMDS; assay type: cell-based; settings: 80 μl DMDS (0.4% v/v), XAD4, 30° C.
Procedure: (§5) Samples were taken from the medium and assayed for amino acid content. […] (AGILENT). A pre-column derivatization of the sample with ortho-phthalaldehyde allowed the quantification of produced amino acids after separation on a Hypersil AA-column (AGILENT).
(§6) A shake flask experiment was performed where OM246C was compared to M2014. […] Thus, the production of methionine occurs from the conversion of O-acetyl-homoserine directly to methionine, bypassing homocysteine.

C. glutamicum M2014 [10] = experiment: as above; assay type: cell-based; settings: strain 2014, 80 μl DMDS (0.4% v/v), XAD4, 30° C.
Procedure: as §5, §6

OM101 (ΔmetB,ΔmetF) = experiment: Lawn growth on methionine-free agar plates with liquid or gaseous DMDS; assay type: cell-based, C. glutamicum; settings: for killing zone: 48-60 hours
Procedure: Control plates received the lawn of cells, but no DMDS. The plates were placed together in a sealed polypropylene plastic box that was slightly bigger than the stack of plates and incubated at 30° C. for 48-60 hours. […] Normally, when a required nutrient is placed in the middle of a lawn that is auxotrophic for the nutrient, a gradient of growth is seen, with the most rapid growth occurring closest to the nutrient.
The plates were incubated at 30° C. enclosed in an airtight plastic box. […] This could be accomplished by evaporating or boiling DMDS and pumping the DMDS vapor into the fermentation vessel, or by bubbling air or oxygen through liquid DMDS on its route to the fermentation vessel.

[11] = tested on: C. glutamicum OM63 (ΔmetF); assay type: cell-based; settings: 36 hours at 30° C.
From the text: as §4

[12] = tested on: C. glutamicum OM101 (ΔmetF, ΔmetB); settings: DMDS 0.2%, XAD4, 60 hours at 30° C.
Procedure: as §7

C. glutamicum M2014 [13] = experiment: Test tube growth in methionine-free medium with canola oil as DMDS delivery system; assay type: cell-based; settings: MF + Canola Oil + 0.2% DMDS, 24 hours at 30° C.
From the text: as §1

C. glutamicum M2014 [14] = experiment: Test tube growth in methionine-free medium with Amberlite XAD4 as DMDS delivery system
Procedure: as §3, §2

CSSC [DMDS, dimethyl disulfide]
Optical densities at 600 nm ([1]; MF + Canola Oil + 0.2% DMDS): 1.9 and 1.7 | Optical densities at 600 nm ([1]; MF + Canola Oil + 0.4% DMDS): 1.1 and 1.3 | Optical densities at 600 nm ([1]; MF + Canola Oil + 0.8% DMDS): 0.0 | OD600 [2]: 0.0 | Optical densities at 600 nm ([3]; DMDS 0.1%): 2.5 and 2.7 | Optical densities at 600 nm ([3]; DMDS 0.2%): 3.1 and 3.9 | Optical densities at 600 nm ([3]; DMDS 0.3%): 1.6 and 0.8 | Optical densities at 600 nm ([3]; DMDS 0.4%): 0.05 and 0.03 | Optical densities at 600 nm ([3]; DMDS 0.5%): 0.02 and 0.01 | Optical densities at 600 nm ([4]; DMDS 0.1%): 4.3 and 4.5 | Optical densities at 600 nm ([4]; DMDS 0.2%): 4.2 and 3.8 | Optical densities at 600 nm ([4]; DMDS 0.3%): 3.3 and 3.6 | Optical densities at 600 nm ([4]; DMDS 0.4%): 3.6 and 3.2 | Optical densities at 600 nm ([4]; DMDS 0.5%): 3.1 and 2.4 | maximum amount of DMDS that allowed cell growth ([5]; DMDS in mineral oil, strain printed as OM63): 0.4% | Optical densities at 600 nm ([5]; MF + Mineral Oil + 0.2% DMDS): 1.1 and 1.6 | Optical densities at 600 nm ([5]; MF + Mineral Oil + 0.4% DMDS): 1.2 and 1.5 | Optical densities at 600 nm ([5]; MF + Mineral Oil + 0.8% DMDS): 0.0 | Optical densities at 600 nm ([5]; MF + Mineral Oil + 1.2% DMDS): 0.0 | maximum amount of DMDS that allowed cell growth (C. glutamicum M2014 [6]; DMDS in mineral oil): 0.8% | Optical densities at 600 nm (C. glutamicum M2014 [6]; MF + Mineral Oil + 0.2% DMDS): 1.4 and 1.2 | Optical densities at 600 nm (C. glutamicum M2014 [6]; MF + Mineral Oil + 0.4% DMDS): 1.5 and 1.3 | Optical densities at 600 nm (C. glutamicum M2014 [6]; MF + Mineral Oil + 0.8% DMDS): 1.4 and 1.7 | Optical densities at 600 nm (C. glutamicum M2014 [6]; MF + Mineral Oil + 1.2% DMDS): 0.0 | Optical densities at 600 nm ([7]; DMDS 0.1%, XAD4, 24 hours at 30° C.): 3.0 and 3.3 | Optical densities at 600 nm ([7]; DMDS 0.1%, XAD4, 42 hours at 30° C.): 6.3 | Optical densities at 600 nm ([7]; DMDS 0.2%, XAD4, 24 hours at 30° C.): 1.7 and 3.4 | Optical densities at 600 nm ([7]; DMDS 0.2%, XAD4, 42 hours at 30° C.): 6.5 | OD600 ([7]; DMDS 0.2%, XAD4, 60 hours at 30° C.): 1.2 and 1.3 | Optical densities at 600 nm ([7]; DMDS 0.3%, XAD4, 24 hours at 30° C.): 3.9 and 2.1 | Optical densities at 600 nm ([7]; DMDS 0.3%, XAD4, 42 hours at 30° C.): 4.9 | Optical densities at 600 nm ([7]; DMDS 0.4%, XAD4, 24 hours at 30° C.): 1.5 and 1.6 | Optical densities at 600 nm ([7]; DMDS 0.4%, XAD4, 42 hours at 30° C.): 3.6 | Optical densities at 600 nm ([7]; DMDS 0.5%, XAD4, 24 hours at 30° C.): 0.1 | Optical densities at 600 nm ([7]; DMDS 0.5%, XAD4, 42 hours at 30° C.): 1.6 | maximum amount of DMDS that allowed cell growth ([7]; DMDS with Amberlite XAD4): 0.4% | OD600 [8]: 0.0 | Optical densities at 600 nm ([9]; MF + 0.02% DMDS): 5.5 | Optical densities at 600 nm ([9]; MF + 0.04% DMDS): 5.3 | Optical densities at 600 nm ([9]; MF + 0.06% DMDS): 6.6 | Optical densities at 600 nm ([9]; MF + 0.08% DMDS): 0.0 | Optical densities at 600 nm ([9]; MF + 0.1% DMDS): 0.0 | amount of DMDS tolerated by the cells ([9]; added directly to liquid cultures): less than 0.06% | amount at which DMDS is toxic ([9]; added directly to liquid cultures of C. glutamicum): greater than 0.06% | Gly + Hse (C. glutamicum OM246C): 1.7 g/L and 1.3 g/L | Ile (C. glutamicum OM246C): 0.0 g/L | Lys (C. glutamicum OM246C): 3.2 g/L and 3.4 g/L | OD600 (C. glutamicum OM246C): 32 and 35 | O—Ac-hse (C. glutamicum OM246C): 4.6 g/L and 4.3 g/L | Gly + Hse (C. glutamicum M2014 [10]): 1.0 g/L and 1.4 g/L | Ile (C. glutamicum M2014 [10]): 0.0 g/L | Lys (C. glutamicum M2014 [10]): 2.5 g/L | OD600 (C. glutamicum M2014 [10]): 38 and 30 | O—Ac-hse (C. glutamicum M2014 [10]): 4.3 g/L and 3.6 g/L | growth of OM101 lawn (OM101 (ΔmetB,ΔmetF); 50 μl liquid DMDS in polypropylene cap, reaches cells only through gaseous state, 30° C., two days): complete bacterial lawn | killing zone (OM101 (ΔmetB,ΔmetF); 50 μl liquid DMDS placed into a well in the agar, 30° C.): no killing zone | killing zone (OM101 (ΔmetB,ΔmetF); 50 μl liquid DMDS spotted directly on the lawn, 30° C.): approximately 30 mm | toxicity of DMDS in the gas state to OM101 (OM101 (ΔmetB,ΔmetF); gas state): not toxic | Optical densities at 600 nm ([11]; MF + 0.02% DMDS): 5.4 | Optical densities at 600 nm ([11]; MF + 0.04% DMDS): 5.9 | Optical densities at 600 nm ([11]; MF + 0.06% DMDS): 5.2 | Optical densities at 600 nm ([11]; MF + 0.08% DMDS): 0.2 | Optical densities at 600 nm ([11]; MF + 0.1% DMDS): 0.0 | OD600 [12]: 2.4 and 1.8 | Optical densities at 600 nm (C. glutamicum M2014 [13]): 1.5 and 1.4 | Optical densities at 600 nm (C. glutamicum M2014 [14]; M2014, DMDS 0.1%, XAD4, 24 hours at 30° C.): 4.4 and 4.3 | Optical densities at 600 nm (C. glutamicum M2014 [14]; M2014, DMDS 0.1%, XAD4, 42 hours at 30° C.): 6.6 | Optical densities at 600 nm (C. glutamicum M2014 [14]; M2014, DMDS 0.2%, XAD4, 24 hours at 30° C.): 4.0 and 4.2 | Optical densities at 600 nm (C. glutamicum M2014 [14]; M2014, DMDS 0.2%, XAD4, 42 hours at 30° C.): 6.9 | OD600 (C. glutamicum M2014 [14]; M2014, DMDS 0.2%, XAD4, 60 hours at 30° C.): 4.5 and 3.6 | Optical densities at 600 nm (C. glutamicum M2014 [14]; M2014, DMDS 0.3%, XAD4, 24 hours at 30° C.): 3.8 and 3.5 | Optical densities at 600 nm (C. glutamicum M2014 [14]; M2014, DMDS 0.3%, XAD4, 42 hours at 30° C.): 7.3 | Optical densities at 600 nm (C. glutamicum M2014 [14]; M2014, DMDS 0.4%, XAD4, 24 hours at 30° C.): 1.3 and 2.3 | Optical densities at 600 nm (C. glutamicum M2014 [14]; M2014, DMDS 0.4%, XAD4, 42 hours at 30° C.): 7.3 | Optical densities at 600 nm (C. glutamicum M2014 [14]; M2014, DMDS 0.5%, XAD4, 42 hours at 30° C.): 5.5 | maximum amount of DMDS that allowed cell growth (C. glutamicum M2014 [14]; M2014, DMDS with Amberlite XAD4): 0.4% | increase of the amount of DMDS that can be added before toxicity is observed (C. glutamicum M2014 [14]; in the presence of Amberlite XAD4 versus direct addition): 5 fold
